Laboratory results: patent US20060069132A1, “Azolecarboxamide herbicides” (priority 2004, published 2006)

How the values were obtained:
[1] = test system: morningglory; experiment: Test B pre-/postemergence herbicide test; type: in vivo, Ipomoea coccinea; settings: for Morningglory plant response rating: postemergence
How it was run: (§1)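 Herbicidal effect was judged by eye on a 0–100 scale after plants stood 13 to 15 days in the greenhouse following pre- or postemergence treatment with surfactant-containing formulations.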

[2] = test system: giant foxtail; experiment: Test B pre-/postemergence herbicide test; type: in vivo, Setaria faberi; settings: for Foxtail, Giant plant response rating: postemergence
How it was run: (§2)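 Greenhouse pot assay with simultaneous preemergence (treated seed) and postemergence (2–18 cm seedlings) applications of surfactant-containing, non-phytotoxic solvent formulations. Response scored visually 13–15 days later on a 0–100 scale, 100 meaning complete control.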

[3] = test system: large crabgrass; experiment: Test A pre-/postemergence herbicide test; type: in vivo, Digitaria sanguinalis
How it was run: (§3)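 Both application timings were run together: directed soil spray over freshly planted seeds in sandy loam, and runoff spray onto 2–10 cm seedlings. Evaluation after ~10 days in greenhouse used a 0–100 visual scale versus untreated controls.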

[4] = test system: barnyardgrass; experiment: Test B pre-/postemergence herbicide test; type: in vivo, Echinochloa crus-galli; settings: for Barnyardgrass plant response rating: postemergence
How it was run: as §1

[5] = test system: barnyardgrass; experiment: Test B flooded paddy test; type: in vivo, Echinochloa crus-galli; settings: 1000 g ai/ha, scale 0 to 100 (0 no effect, 100 complete control)
How it was run: (§4)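 Treated at 2-leaf (paddy) or 1–4-leaf, 2–18 cm (postemergence); greenhouse 13–15 d; visual score vs control, 0 none to 100 complete control; dash = not tested.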

[6] = test system: wheat; experiment: Test B postemergence herbicide test; type: in vivo, Triticum aestivum; parameters: key to Wheat plant response rating: 0 = no effect, 100 = complete control; settings: postemergence
How it was run: (§5)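 Visual ratings, 0 (no effect) to 100 (complete control), made versus controls after 13–15 d greenhouse. Paddy plants treated at 2-leaf stage; postemergence plants at 1- to 4-leaf stage, 2–18 cm tall.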

[7] = test system: wild oat; experiment: Test B postemergence herbicide test; type: in vivo, Avena fatua; settings: postemergence
How it was run: as §5

[8] = test system: Surinam grass; experiment: Test B pre-/postemergence herbicide test; type: in vivo, Urochloa decumbens; settings: for Surinam Grass plant response rating: postemergence
How it was run: as §2

[9] = test system: ducksalad; experiment: Test B flooded paddy test; type: in vivo, Heteranthera limosa; settings: 1000 g ai/ha, scale 0 to 100 (0 no effect, 100 complete control)
How it was run: as §4

[10] = test system: large crabgrass; experiment: Test B pre-/postemergence herbicide test; type: in vivo, Digitaria sanguinalis; settings: for Crabgrass, Large plant response rating: postemergence
How it was run: as §2

[11] = test system: giant foxtail; experiment: Test A pre-/postemergence herbicide test; type: in vivo, Setaria faberi
How it was run: as §3

[12] = test system: small flower umbrella sedge; experiment: Test B flooded paddy test; type: in vivo, Cyperus difformis; settings: 1000 g ai/ha, scale 0 to 100 (0 no effect, 100 complete control)
How it was run: as §4

[13] = test system: velvetleaf; experiment: Test B pre-/postemergence herbicide test; type: in vivo, Abutilon theophrasti; settings: 100 is complete control
How it was run: as §2

[14] = test system: velvetleaf; experiment: Test A pre-/postemergence herbicide test; type: in vivo, Abutilon theophrasti
How it was run: as §3

[15] = test system: cocklebur; experiment: Test B pre-/postemergence herbicide test; type: in vivo, Xanthium strumarium; settings: for Cocklebur plant response rating: postemergence
How it was run: as §1

[16] = test system: lambsquarters; experiment: Test B pre-/postemergence herbicide test; type: in vivo, Chenopodium album; settings: for Lambsquarters plant response rating: postemergence
How it was run: as §2

[17] = test system: barnyardgrass; experiment: Test A pre-/postemergence herbicide test; type: in vivo, Echinochloa crus-galli
How it was run: as §3

[18] = test system: corn; experiment: Test B pre-/postemergence herbicide test; type: in vivo, Zea mays; settings: for Corn plant response rating: postemergence
How it was run: as §2

[19] = test system: pigweed; experiment: Test B pre-/postemergence herbicide test; type: in vivo, Amaranthus retroflexus; settings: for Pigweed plant response rating: postemergence
How it was run: as §2

[20] = test system: blackgrass; experiment: Test B postemergence herbicide test; type: in vivo, Alopecurus myosuroides; settings: postemergence
How it was run: as §4

[21] = test system: morningglory; experiment: Test A pre-/postemergence herbicide test; type: in vivo, Ipomoea spp.
How it was run: as §3

[22] = test system: redroot pigweed; experiment: Test A pre-/postemergence herbicide test; type: in vivo, Amaranthus retroflexus
How it was run: as §3

[23] = test system: rice; experiment: Test B flooded paddy test; type: in vivo, Oryza sativa; settings: 1000 g ai/ha, scale 0 to 100 (0 no effect, 100 complete control)
How it was run: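 Greenhouse test; postemergence application to plants at 1–4 leaves (2–18 cm); paddy species at 2 leaves; evaluated visually vs controls at 13–15 days; scale 0–100 (100 = complete control).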

[24] = 125 g ai/ha, 0 is no effect, 100 is complete control, preemergence
[25] = 125 g ai/ha, visual rating, scale 0 (no effect) to 100 (complete control)
[26] = 500 g ai/ha, visual rating, 0 = no effect, 100 = complete control, preemergence
[27] = 500 g ai/ha, scale 0 to 100, 0 is no effect, 100 is complete control
[28] = Postemergence, 500 g ai/ha, 0 to 100 scale, 0 no effect, 100 complete control
[29] = Postemergence, 2000 g ai/ha, 0 to 100 scale, 0 no effect, 100 complete control
[30] = Preemergence, 2000 g ai/ha, visual rating, 0 to 100 scale (0 no effect, 100 complete control)
[31] = preemergence, 500 g ai/ha, visual injury, 0 to 100 scale (0 no effect, 100 complete control)

CCc1nn(C2CCCC2)nc1C(=O)Nc1cccc(C(=O)N2CC=CC2)c1 [Compound 354]
30: Morningglory plant response rating [1, 25]
100: Plant response rating, Lambsquarters [16, 26]
55: Barnyardgrass plant response rating [17, 30]
70: Plant response rating, Foxtail, Giant [2, 26] | Plant response rating, Velvetleaf [14, 29] | Plant response rating, Barnyardgrass [17, 29] | Pigweed plant response rating [22, 28] | Pigweed plant response rating [22, 30]
50: Ducksalad plant response rating [9] | Plant response rating, Foxtail, Giant [11, 29] | Sedge, Umbrella plant response rating [12] | Velvetleaf plant response rating [14, 28] | Lambsquarters plant response rating [16, 27] | Pigweed plant response rating [19, 27] | Rice plant response rating [23]
40: Barnyardgrass plant response rating [5] | Pigweed plant response rating [19, 25]
60: Morningglory plant response rating [1, 27] | Plant response rating, Barnyardgrass [4, 26] | Pigweed plant response rating [22, 31]
85: Plant response rating, Morningglory [21, 29]
45: Velvetleaf plant response rating [14, 30]
20: Foxtail, Giant plant response rating [2, 27] | Plant response rating, Crabgrass, Large [3, 29] | Crabgrass, Large plant response rating [3, 30] | Wheat plant response rating [6, 27] | Oat, Wild plant response rating [7, 27] | Plant response rating, Surinam Grass [8, 26] | Surinam Grass plant response rating [8, 27] | Plant response rating (0 to 100 scale), Crabgrass, Large [10, 24] | Cocklebur plant response rating [15, 27] | Barnyardgrass plant response rating [17, 28] | Plant response rating (0 to 100 scale), Corn [18, 24] | Plant response rating, Corn [18, 26] | Blackgrass plant response rating [20, 27] | Morningglory plant response rating [21, 28] | Morningglory plant response rating [21, 30]
5: Velvetleaf plant response rating [14, 31]
80: Plant response rating, Crabgrass, Large [10, 26] | Foxtail, Giant plant response rating [11, 30] | Plant response rating, Pigweed [22, 29]
10: Plant response rating (0 to 100 scale), Foxtail, Giant [2, 24] | Foxtail, Giant plant response rating [2, 25] | Crabgrass, Large plant response rating [3, 28] | Crabgrass, Large plant response rating [3, 31] | Crabgrass, Large plant response rating [10, 27] | Foxtail, Giant plant response rating [11, 28] | Velvetleaf plant response rating ([13]; postemergence, 500 g ai/ha, scale 0 to 100, 0 is no effect) | Cocklebur plant response rating [15, 25] | Lambsquarters plant response rating [16, 25] | Blackgrass plant response rating [20, 25]
15: Foxtail, Giant plant response rating [11, 31] | Morningglory plant response rating [21, 31]
90: Plant response rating, Pigweed [19, 26]
0: Plant response rating (0 to 100 scale), Morningglory [1, 24] | Plant response rating, Morningglory [1, 26] | Plant response rating (0 to 100 scale), Barnyardgrass [4, 24] | Barnyardgrass plant response rating [4, 25] | Barnyardgrass plant response rating [4, 27] | Wheat plant response rating [6, 25] | Oat, Wild plant response rating [7, 25] | Plant response rating (0 to 100 scale), Surinam Grass [8, 24] | Surinam Grass plant response rating [8, 25] | Crabgrass, Large plant response rating [10, 25] | Plant response rating (0 to 100 scale), Velvetleaf ([13]; 125 g ai/ha, 0 is no effect, preemergence) | Plant response rating (0 to 100 scale), Cocklebur [15, 24] | Plant response rating, Cocklebur [15, 26] | Barnyardgrass plant response rating [17, 31] | Corn plant response rating [18, 25] | Corn plant response rating [18, 27] | Plant response rating (0 to 100 scale), Pigweed [19, 24]
